Laboratory results published in PubChem BioAssay (NCI).
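A five-concentration, 48-hour dose response in 96-well plates underlies each endpoint, interpolated linearly between surrounding concentrations. Abbreviation: GI50, concentration required for 50% inhibition of growth. TGI marks complete inhibition of growth.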 Calls of active or inactive are those of the source. No stated cut-off is given here; in the data, active means GI50 below about 0.43 µM; inactive means the rest.

The molecules below were run on HOP-18 NSCLC (assay: growth of human tumour cells (NCI), 48 h).

How did the TGI turn out when `Cc1ccc2c(c1)CN(C(=O)CCC(=O)OCc1ccccc1)c1ccc(C)cc1CN2C(=O)CCC(=O)OCc1ccccc1` was run?
The TGI was > 100 µM.

Which TGI does the source give for `O=c1[nH]c(=O)n(C2OC(CO)C(O)C(O)C2O)cc1F` (stereo not drawn) here?
The TGI was > 100 µM.

With `c1cc[c]([Pb]([c]2ccccc2)[c]2ccccc2)cc1` as the molecule, how does the GI50 read?
Its GI50 is 16.8 µM.

What about the TGI of the same molecule?
The TGI was 50.8 µM.

How did the TGI turn out when `CC(=O)N1C/C(=C\c2ccc(N(C)C)cc2)C(=O)/C(=C/c2ccc(N(C)C)cc2)C1` was run?
Its TGI is > 100 µM.

Which TGI does the source give for `COC1=CC2(C=CC1=O)c1cc(OC)c(OC)cc1CCN2C(=O)c1ccccc1` (stereo not drawn) here?
The TGI was > 100 µM.

Which TGI does the source give for `Cc1[nH]c2ccccc2c1C1Cc2ccccc2N1C(=O)/C(Cl)=C/c1ccccc1` (stereo not drawn) here?
The TGI was > 100 µM.

Each molecule was assayed on RXF-631 renal (assay: growth of human tumour cells (NCI), 48 h).

With `COc1ccc(/C(Cl)=C(\C=O)c2ccc([N+](=O)[O-])cc2)cc1` as the molecule, how does the TGI read?
The TGI was 68.3 µM.

Which TGI does the source give for `Cc1ccc(-c2cc(=O)c3cc(C)c(C)c(C(=O)O)c3o2)cc1C` here?
Its TGI is > 100 µM.

For `O=C(/C=C/c1c(O)ccc2ccccc12)c1ccccc1`, which TGI is on record?
The TGI was > 100 µM.

`Fc1ccc(C2SCc3nc4ccccc4n32)cc1Cl` (stereo not drawn) was tested. Which TGI did it give?
The TGI was > 100 µM.

Which GI50 does the source give for `COc1ccc(/C=C\c2cc(OC)c(OC)c(OC)c2)cc1OC(=O)NCCN(C)C` here?
The GI50 was 0.258 µM.

For `COc1cc2c(c(OC)c1)C1(CC(CC#N)C2)SCCS1` (stereo not drawn), which TGI is on record?
Its TGI is > 100 µM.

Which TGI does the source give for `CCOC(=O)CCn1[nH]c(=O)c(Cl)c(Cl)c1=O` here?
The TGI was > 100 µM.

`C/C=C1/C(=C/c2[nH]c(/C=c3\[nH]/c(=C/C4=NC(=O)C(CC)=C4C)c(C)c3CCC(=O)O)c(CCC(=O)O)c2C)NC(=O)C1C` (stereo not drawn) was tested. Which outcome did it give?
Its outcome is “inactive”.

How did the TGI turn out when `N#CCc1ccc(C(C#N)/C(CCCC(=O)Nc2cccc([N+](=O)[O-])c2)=N/NC(N)=S)cc1` (stereo not drawn) was run?
Its TGI is > 100 µM.

How did the TGI turn out when `CC(C)c1ccc(C(c2ccc(OCC(=O)O)cc2)c2ccc(C(C)C)cc(=O)c2O)c(O)c(=O)c1` was run?
Its TGI is 31.3 µM.

With `COc1ccc2c3c(coc13)C(CCC(=O)O)CC2` (stereo not drawn) as the molecule, how does the TGI read?
The TGI was > 100 µM.

With `CS(=O)(=O)c1cc(=O)c2ccccc2s1` as the molecule, how does the TGI read?
The TGI was 21.3 µM.

`CC(=O)N1C/C(=C\c2ccc(N(C)C)cc2)C(=O)/C(=C/c2ccc(N(C)C)cc2)C1` was tested. Which TGI did it give?
The TGI was > 100 µM.

`Cc1[nH]c2ccccc2c1C1Cc2ccccc2N1C(=O)/C(Cl)=C/c1ccccc1` (stereo not drawn) was tested. Which TGI did it give?
The TGI was > 100 µM.

These molecules were tested on DLD-1 colon (assay: growth of human tumour cells (NCI), 48 h).

How did the TGI turn out when `COc1ccc(/C(Cl)=C(\C=O)c2ccc([N+](=O)[O-])cc2)cc1` was run?
The TGI was 63.1 µM.

`Cc1ccc(-c2cc(=O)c3cc(C)c(C)c(C(=O)O)c3o2)cc1C` was tested. Which TGI did it give?
Its TGI is > 100 µM.

For `O=C(/C=C/c1c(O)ccc2ccccc12)c1ccccc1`, which TGI is on record?
Its TGI is > 100 µM.

With `Cc1nc2ccccc2c(=O)n1-c1ccccc1F` as the molecule, how does the TGI read?
Its TGI is > 100 µM.

With `Clc1ccc(-c2c(C3=NCCCN3)nnn2-c2ccc(Cl)cc2)cc1` as the molecule, how does the TGI read?
Its TGI is > 100 µM.

How did the TGI turn out when `Fc1ccc(C2SCc3nc4ccccc4n32)cc1Cl` (stereo not drawn) was run?
The TGI was > 100 µM.

How did the TGI turn out when `CC1=N/C(=C\c2cccc([N+](=O)[O-])c2)C(=O)O1` was run?
The TGI was > 100 µM.

With `CC(C)N1CN(C(C(=O)N[C@@H]2C(=O)N3C2SC(C)(C)C3C(=O)O)c2ccccc2)CSC1=S` (stereo partly drawn) as the molecule, how does the TGI read?
The TGI was > 100 µM.

For `CC(C)c1cc2c(O)c(c1)Cc1cc(C(C)C)cc(c1O)Cc1cc(C(C)C)cc(c1O)Cc1cc(C(C)C)cc(c1O)C2`, which TGI is on record?
The TGI was > 100 µM.

Which TGI does the source give for `COc1ccc(/C=C\c2cc(OC)c(OC)c(OC)c2)cc1OC(=O)NCCN(C)C` here?
The TGI was 15.9 µM.

Which TGI does the source give for `CCCCOC(=O)NC(=O)c1cn(C2CCCCC2)c(=O)[nH]c1=O` here?
The TGI was > 100 µM.

For `COc1cc2c(c(OC)c1)C1(CC(CC#N)C2)SCCS1` (stereo not drawn), which TGI is on record?
The TGI was > 100 µM.

With `CCOC(=O)CCn1[nH]c(=O)c(Cl)c(Cl)c1=O` as the molecule, how does the TGI read?
Its TGI is > 100 µM.

With `Nc1ncn(C2CC(O)C(CO)O2)c(=O)n1` (stereo not drawn) as the molecule, how does the TGI read?
Its TGI is > 375 µM.

`COc1ccc(CNc2nc3cc(C(F)(F)F)ccc3nc2C)cc1OC` was tested. Which TGI did it give?
Its TGI is > 100 µM.

With `C/C=C1/C(=C/c2[nH]c(/C=c3\[nH]/c(=C/C4=NC(=O)C(CC)=C4C)c(C)c3CCC(=O)O)c(CCC(=O)O)c2C)NC(=O)C1C` (stereo not drawn) as the molecule, how does the GI50 read?
The GI50 was > 150 µg/mL.

And the TGI?
The TGI was > 150 µg/mL.

How did the TGI turn out when `COc1cccc(/C=C2\C(=O)N(C(=O)c3ccc(NC(C)=O)cc3)N=C2C)c1` was run?
The TGI was > 100 µM.

`N#CCc1ccc(C(C#N)/C(CCCC(=O)Nc2cccc([N+](=O)[O-])c2)=N/NC(N)=S)cc1` (stereo not drawn) was tested. Which TGI did it give?
Its TGI is > 100 µM.

For `COC(C(O)c1ccc2c(c1)OCO2)P(=O)(c1ccccc1)c1ccccc1` (stereo not drawn), which TGI is on record?
Its TGI is > 100 µM.

For `CC(C)c1ccc(C(c2ccc(OCC(=O)O)cc2)c2ccc(C(C)C)cc(=O)c2O)c(O)c(=O)c1`, which TGI is on record?
Its TGI is 21.3 µM.

With `N#C/C(=C\c1cc2ccccc2c2ccccc12)c1ccccc1` as the molecule, how does the TGI read?
Its TGI is > 90.2 µM.

Which TGI does the source give for `CCOc1ccc2c(c1)[n+]([O-])c(-c1nc3ccccc3s1)c(N)[n+]2[O-]` here?
Its TGI is > 100 µM.

For `COc1ccc2c3c(coc13)C(CCC(=O)O)CC2` (stereo not drawn), which TGI is on record?
The TGI was > 100 µM.

`CS(=O)(=O)c1cc(=O)c2ccccc2s1` was tested. Which TGI did it give?
The TGI was 4.21 µM.

`Cc1ccc2c(c1)CN(C(=O)CCC(=O)OCc1ccccc1)c1ccc(C)cc1CN2C(=O)CCC(=O)OCc1ccccc1` was tested. Which TGI did it give?
Its TGI is > 100 µM.

With `O=c1[nH]c(=O)n(C2OC(CO)C(O)C(O)C2O)cc1F` (stereo not drawn) as the molecule, how does the TGI read?
Its TGI is > 100 µM.

For `c1cc[c]([Pb]([c]2ccccc2)[c]2ccccc2)cc1`, which GI50 is on record?
The GI50 was 11.9 µM.

What about the TGI of the same molecule?
The TGI was 29.6 µM.

With `CC(=O)N1C/C(=C\c2ccc(N(C)C)cc2)C(=O)/C(=C/c2ccc(N(C)C)cc2)C1` as the molecule, how does the TGI read?
The TGI was > 100 µM.

`COC1=CC2(C=CC1=O)c1cc(OC)c(OC)cc1CCN2C(=O)c1ccccc1` (stereo not drawn) was tested. Which TGI did it give?
Its TGI is > 100 µM.

Which TGI does the source give for `Cc1[nH]c2ccccc2c1C1Cc2ccccc2N1C(=O)/C(Cl)=C/c1ccccc1` (stereo not drawn) here?
The TGI was > 100 µM.
